# Experiments:
# A549 cells = test: Giemsa staining, morphological detection of apoptosis; type: cell-based, human; conditions: 72 h
# Procedure: With an increase in dose, the phenomenon of cell shrinkage and cell disruption became more obvious.
# A549 cells in the logarithmic growth phase were seeded in 12-well plates (1.2 × 10^4 cells/well). After incubation for 24 h at 37 °C with 5% CO2, various concentrations (0, 2, 4, or 6 μM) of compound 9 were added to the cultures, and the plate was incubated for further 72 h. Then, we discarded the cell culture fluid, washed twice with phosphate-buffered saline (PBS), and fixed the cells with cold methanol. The A549 cells were stained with 6% Giemsa solution for 5 min, washed with water, and dried. The cell morphological changes were observed under an inverted microscope.
# [1] = tested on: HepG2, A549, MCF-7, H9c2, and MDCK cells; test: MTT assay, panel of five cell lines (summary in discussion); type: cell-based; conditions: read-out: IC50 values ranging (cell lines not specified)
# Procedure: A series of different esters of He were designed and synthesized. All these compounds were screened for cytotoxic activity employing a panel of five cell lines, including HepG2, A549, MCF-7, H9c2, and MDCK cells, using the MTT assay. […] Further intensive modifications at C-23 and studies are currently being performed in our research group, and the results will be reported in due course.
# The antitumor activity of these compounds were evaluated on MCF-7, A549, HepG2, MDCK, and H9c2 cell lines using the MTT assay. Cells at a density of 3 × 10^3 cells/well were plated in a 96-multiwell plate in DMEM containing 10% FBS for 24 h at 37 °C with 5% CO2. Then, cells were treated for 72 h with the required concentrations (3.125, 6.25, 12.5, 25, or 50 μM) of the compounds and reference drugs (He and DDP) dissolved with the vehicle DMSO. After that, the culture substrate was replaced with 200 μL of DMEM containing 20 μL of MTT solution at 5 mg/mL and incubated for 4 h. The supernatant was removed and the dissolved formazans precipitated with 120 μL of DMSO. Wells without drugs were used as blanks. A plate reader was used to determine the absorbance at 490 nm. The above steps were repeated three times. The IC50 values were defined as the concentration of the compound which gave 50% growth inhibition, and they were calculated using Graph Pad Prism 5. […]
# [2] = tested on: MCF-7 (human mammary cancer); test: MTT cytotoxicity assay, MCF-7; type: cell-based; conditions: Homo sapiens, MCF7, 72 h treatment, read-out: Half Maximal Inhibitory Concentration (IC50) MCF-7
# Summary of the method: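 Cells seeded at 3 × 10^3/well in DMEM/10% FBS, then treated 72 h with 3.125–50 μM compound in DMSO. MTT (5 mg/mL) added for 4 h, formazan dissolved in DMSO, absorbance read at 490 nm; inhibition relative to untreated control, IC50 as 50% growth inhibition, triplicate runs.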
structure (smiles),measurement,setting,value
"Cc1cncc(C(=O)OCCOC(=O)[C@]23CCC(C)(C)CC2C2=CCC4[C@@]5(C)CC[C@H](O)[C@@](C)(CO)C5CC[C@@]4(C)[C@]2(C)CC3)n1 (stereo partly drawn) [Compound 9, 2-(((4aS,6aS,6bR,9R,10S,12aR)-10-Hydroxy-9-(hydroxymethyl)-2,2,6a,6b,9,12a-hexamethyl-1,2,3,4,4a,5,6,6a,6b,7,8,8a,9,10,11,12,12a,12b,13,14b-icosahydropicene-4a-carbonyl)oxy)ethyl-6-methylpyrazine-2-carboxylate]","cell morphology, Giemsa staining",A549 cells; 2 μM,the cells had a lot of puffing and fragmentation
same,"cell morphology, Giemsa staining",A549 cells; 6 μM,almost no normal cell morphology
same,IC50,[1],3.22 to 4.48 µM
same,IC50,[2],8.73 ± 1.49 µM
